Calls of active or inactive are those of the source.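 The calls were made as follows: active = at a dose no more than twice the top valid tested dose, the fitted curve drops below -35% activity change; inactive = the rest, rising-direction activity included.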

Tested on in the first assay: not listed separately
In words: NIH3T3 cell viability loss, ATP content – CellTiter-Glo luminescence, cherry-pick, set 2, cytotoxicity control for HSP40 inhibitor project, dose response (AID 624265).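 Also: cells exposed to compound for 48 hours before the ATP read.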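 As to activity change, negative = toxicity: 0% = median neutral control signal and -100% = no luminescence left.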 To be noted: NIH3T3 viability, CellTiter-Glo ATP luminescence; at 50 µM (top of the series). In general terms: ATP-based viability assays read luminescence as a measure of living cells.
With `c1ccc(C(=NNc2nc3ccccc3s2)c2ccccn2)cc1`, the activity change, negative = toxicity was 11.9% (inactive).

For the molecule `O/N=C(\c1ccc(Cl)cc1Cl)c1ncc(C(F)(F)F)cc1Cl`, the activity change, negative = toxicity is -0.787% (inactive).

For `CC1CCc2c(C(=O)Nc3ccccn3)csc2C1` (configuration not stated), the activity change, negative = toxicity is -3.05% (inactive).

With `COc1cccc(/C=N/NC(=O)c2nc(-c3ccccc3)cc(-c3ccccc3)n2)c1O`, the activity change, negative = toxicity was -8.68% (inactive).

Take `O=C(COc1ccc([N+](=O)[O-])cc1)Nc1nc(-c2ccccn2)cs1`: the activity change, negative = toxicity is -17.8% (inactive).

For the molecule `O=P(Nc1cccnc1)(Oc1ccccc1Cl)Oc1ccccc1Cl`, the activity change, negative = toxicity was -1.87% (inactive).

For `O=C(N/N=C/c1ccc[nH]1)c1sc2ccccc2c1Cl`, the activity change, negative = toxicity was -15.3% (inactive).

With `Cc1ccc2c(C)c3ccc4ccccc4c3c[n+]2c1`, the activity change, negative = toxicity is 11.9% (inactive).

For `Cc1ccc(-n2nnnc2SCC(=O)N2CCc3ccccc3C2)c(C)c1`, the activity change, negative = toxicity is 3.85% (inactive).

Turning to `Cc1ccccc1Oc1nc(-c2ccccn2)nc2ccccc12`, the activity change, negative = toxicity was 6.99% (inactive).

A further assay relates to NIH3T3 viability, CellTiter-Glo ATP luminescence. The assay is described as above.
Conditions: not given
With `CCC(=O)NC(c1ccco1)c1cc(Cl)c2cccnc2c1O` (configuration not stated), the AC35 is 49.1 µM.

Consider `CC1=CC(=O)C=C(C)C1=NOS(=O)(=O)c1ccccc1`, for which the AC35 is 27.6 µM.

For `CCCCOC(=O)/C=C/c1ccc(OC(=O)OC)c(OC(=O)OC)c1`, the AC35 was 50.7 µM.

With `CC(=O)Oc1ccc(OC(C)=O)c(SCCCCCCl)c1`, the AC35 was 42.6 µM.

Turning to `Oc1ccc(/C=N/Nc2ccc(C(F)(F)F)cn2)c(O)c1`, the AC35 is 43.9 µM.

As for `Oc1c(C(Nc2cccc(C(F)(F)F)c2)c2ccncc2)ccc2cccnc12` (configuration not stated), the AC35 was 48.9 µM.

Consider `COc1ccc(O)c(C(=O)CC(=O)c2ccc(F)cc2)c1`, for which the AC35 was 52.3 µM.

With `Cc1ccc(Cl)cc1NC1=C/C(=N\S(=O)(=O)c2cccs2)c2ccccc2C1=O`, the AC35 was 8.07 µM.

`CN(C)c1nc(-c2ccccn2)nnc1-c1ccccc1`: the AC35 was 43.5 µM.

Take `CCc1cc(SC#N)cc(C)c1NC(=O)CCl`: the AC35 was 49.6 µM.

For the molecule `Oc1ccc(N=Nc2ccc3c(c2)OCCO3)c2cccnc12`, the AC35 was 50.2 µM.

`Cc1c(Cc2ccccc2)c(NCCN(C)C)n2c(nc3ccccc32)c1C#N`: the AC35 was 16.3 µM.

In the case of `CN(C)c1ccc(C=c2c3ccccc3n3c2c2c([n+]3C)CCCC2)cc1`, the AC35 was 33.3 µM.

Regarding `CC(=O)C1=C(c2ccc(Br)cc2)C(=O)c2ccccc2C1=O`, the AC35 was 26.2 µM.

As to `O=[N+]([O-])c1ccc(Sc2cccc[n+]2[O-])c2nonc12`, the AC35 is 4.46 µM.

As for `CC(C)N1CCN(c2ccc(OCC3COC(Cn4cncn4)(c4ccc(Cl)cc4Cl)O3)cc2)CC1` (configuration not stated), the AC35 was 12.4 µM.

For the molecule `O=CC1=C(c2ccccc2)Oc2ccccc2O1`, the AC35 was 47.5 µM.

On to `Cc1ccc(S(=O)(=O)Nc2ccc(O)c3cccnc23)cc1`, for which the AC35 is 33 µM.

Turning to `C=C1C(=O)C23CCC4C(C)(C(=O)OC)CCCC4(C)C2CCC1(O)C3` (configuration not stated), the AC35 is 10.1 µM.

As to `CCCCCCCCCCOC(=O)Cn1c(COc2ccccc2OC)[n+](C)c2ccccc21`, the AC35 was 26.7 µM.

Consider `O=C(Nc1nc(-c2ccccn2)cs1)c1ccc(Br)s1`, for which the AC35 is 27.1 µM.

On to `Cc1cccc2sc(NNC(=O)c3ccc(S(=O)(=O)N4CCCC(C)C4)cc3)nc12` (configuration not stated), for which the AC35 was 40.5 µM.

For the molecule `CC(C)N1CCN(c2ccc(OC[C@H]3CO[C@](Cn4cncn4)(c4ccc(Cl)cc4Cl)O3)cc2)CC1`, the AC35 was 30.8 µM.

In the case of `CNc1ccc2oc(C[C@H]3O[C@@]4(CC[C@H]3C)O[C@H]([C@H](C)C(=O)c3ccc[nH]3)[C@H](C)C[C@H]4C)nc2c1C(=O)O`, the AC35 is 11.1 µM.

As to `Cc1oc2c(c1C(=O)c1ccccc1)C(=O)C(=O)c1ccccc1-2`, the AC35 is 8.43 µM.

As to `COc1cccc(/C=N/Nc2ncnc(Cl)c2N)c1O`, the AC35 was 47.2 µM.

For the molecule `Cc1[nH]n(-c2ccccc2)c(=O)c1/C=N/Nc1nncc(-c2ccccc2)n1`, the AC35 was 19.5 µM.

Regarding `COc1cccc(/C=N/Nc2ncnc3scc(-c4ccccc4)c23)c1O`, the AC35 was 48.4 µM.

For `CC1CCN(c2nc(-c3ccncc3)nc3ccccc23)CC1`, the AC35 is 49.6 µM.

In the case of `CCCCNc1c(-c2cccc(-c3ccc(OC)cc3)c2)nc2ccc(C)cn12`, the AC35 was 22.7 µM.

`CN(Cc1ccc(Cl)s1)C(=O)CCl`: the AC35 was 25 µM.

`Oc1cccc2ccc(Nc3ccccn3)nc12`: the AC35 was 14.2 µM.

Regarding `CCOC(=O)c1cc2c(=Cc3ccc(N(C)C)cc3)c3ccccc3n2[n+]1C`, the AC35 is 29 µM.

In the case of `Nc1cc2nc3ccccc3oc-2cc1=O`, the AC35 is 28 µM.

For the molecule `CCCCNc1c(-c2cccc(Sc3ccc(OC)cc3)c2)nc2ccccn12`, the AC35 was 39.2 µM.

As to `O=C1c2cc(F)ccc2-n2c1nc1ccccc1c2=O`, the AC35 was 50 µM.

Regarding `CC[n+]1c(/C=C/C=C/c2ccc(N(C)C)cc2)sc2ccccc21`, the AC35 was 24.4 µM.

For the origin of these results see PubChem BioAssay AID624265 (Broad Institute, 2012).
